From PMC6272646, “Understanding the Physicochemical Properties of Mitragynine, a Principal Alkaloid of Mitragyna speciosa, for Preclinical Evaluation” (Molecules, 2015)
Values after ≈ are worked out from the molar mass of the structure shown. Read-outs that look alike come from different tables or passages of the source.

Columns and labels:
rodents = tested on: rodents; design: method as in PMID 4626477; details: cited from earlier work
opiate receptor = tested on: opiate receptor; design: method as in ref 29 = [29]; 29. Watanabe K. Yano S. Horie S. Yamamoto L.T. Takayama H. Aimi N. Sakai S. Ponglux D. Tongroach P. Shan J. Pharmacological properties of some structurally related indole alkaloids contained in the As; details: cited from earlier work
[1] = design: method as in PMID 24841968; details: cited from earlier work
rats = tested on: rats; design: method as in PMID 25262913; details: cited from earlier work
[2] = pKa determination, microplate spectrophotometer method; type: physicochemical; details: aqueous buffer
From the text: The instruments employed were UV spectrophotometer 8453 UV-Vis Diode Array (Agilent, Santa Clara, CA, USA), and Multiskan* GO Microplate Spectrophotometer (Thermo Scientific, Waltham, MA, USA). Data were captured using the Thermo Scientific SkanIt Software (Thermo Scientific, Version 3.2). Buffer Maker Software (version 1.0.1.55, BPP Marcin Borkowski, Marki, Poland,) was used for preparation of buffers with constant ionic strength for pKa determination. The pH-meter employed throughout the study was a PH 211 Hanna (Padova, Italy) equipped with a combined glass electrode.
pKa determination was carried out using conventional UV and microplate spectrophotometer methods. Acetic acid, tris base and sodium carbonate were used to prepare stable buffers in the pH range of 3 to 12. The buffers were prepared to give a final buffer molarity of 0.01 M. Either NaOH or HCl were used for pH adjustment of the various buffers, whose ionic strength was kept constant at 0.02 by addition of NaCl.
Stock solution of mitragynine at 0.5 mg/mL was prepared in acetonitrile. Ten microliters of the stock solution was transferred into individual test tubes and diluted with 1.0 mL buffer of various pH to give a final concentration of 5 μg/mL. For absorbance spectrum analysis, 250 μL of the various pH buffer solutions spiked with drug were placed in a 96-well quartz UV-transparent microplate and immediately scanned in the range of 200–400 nm at a scanning rate of 200 nm/s in triplicates. The pKa was calculated with equation pKa = pH + log (d − dm/di − d), for basic compound, where di is the absorbance of the ionised species, d is the absorbance of the solution tested and dm is the absorbance of the neutral species.

[3] = rats, cited from earlier work
[4] = Equilibrium solubility in water and buffers (HPLC-UV); type: physicochemical
Procedure: (§1) The HPLC system consisted of a Jasco delivery pump (Tokyo, Japan) equipped with autosampler connected to a Waters 2487 detector (Milford, MA, USA) coupled to Jasco Chromnav software (Version 2.0, Tokyo, Japan). Chromatographic separation was performed on a C8 Agilent Eclipse plus (4.6 mm i.d. × 250 mm, 5-μm particle size; Apple Valley, MN, USA). The HPLC-UV method was adapted from our previous study and revalidated for the present HPLC system. The method was employed to quantify mitragynine in partition coefficient, stability, dissolution and solubility studies.
For solubility studies, an excess of mitragynine was added to 1.0 mL each of distilled water or buffers at pH 4, 7 and 9. The test tubes were placed in a water bath shaker at 37 degrees Celsius at 100 cycles/min for 48 h until equilibrium. The samples were centrifuged at 3000 rpm for 5 min and supernatant was taken for quantification of mitragynine by HPLC-UV. For stability studies, analogous buffers were used, but they were spiked with mitragynine in acetonitrile to give a concentration of 20 µg/mL (organic content was kept below 1%). A 0.1 mL aliquot was collected from each buffer system at intervals of 0, 0.5, 6.0 and 24.0 h for determination of mitragynine. Mitragynine concentrations were expressed as percentage recovered. All experiments were performed in triplicates.

[5] = In vitro release (dissolution) from capsules filled with mitragynine pure standard; type: physicochemical; details: up to 2 h, capsule, basket method, 50 rpm, 37 °C
Procedure: Hard shell gelatin capsules filled with mitragynine pure standard were used in the in vitro dissolution study. In order to characterize the release of mitragynine, drug release profile was generated, in which mitragynine release values were determined as a function of time. The US pharmacopoeia I (basket) method was used for the in vitro dissolution study. SGF (pH 1.2) and SIF (pH 6.8) were prepared without enzymes. These media were used for the dissolution study, respectively. The capsule filled with mitragyine was introduced into 500 mL of dissolution medium. The capsule was agitated at 50 rpm at 37 °C. An aliquot (1 mL) of sample was withdrawn at predetermined time intervals of 5, 10, 15, 30, 40, 60, 90 and 120 min after onset of the dissolution. The samples were filtered through 0.45 um PTFE syringe filters, diluted with ACN (1:1) and the drug concentration was determined by the validated RP-HPLC-UV method. Samples were analyzed along with QC samples.

[6] = n-octanol/water partition coefficient (logP, logD); type: physicochemical; details: for logD: read-out: Calculated n-octanol/water partition coefficient (logD)
Procedure: as §1
Lipophilicity of mitragynine was determined by n-octanol/water partition coefficient (P) using the method described by Low et al.. The distribution coefficient (log D) was determined in a similar manner to logP but instead of using water, buffers with a specific pH (4, 7, and 9) were used.

## CC[C@@H]1CN2CCc3c([nH]c4cccc(OC)c34)[C@@H]2C[C@@H]1/C(=C\OC)C(=O)OC [mitragynine]
rodents
  dose levels with no toxicity: 800 to 900 mg/kg
Opiate receptor
  antinociceptive effect, potency compared with M. speciosa crude extract: less potent than the M. speciosa crude extract
[1]
  drug loss in SGF: 26%
rats; i.p. in Tween 80, high (30 mg/kg) and moderate (10 mg/kg) doses
  addictive potential effects: observed
rats; i.p. in Tween 80, mild (5 mg/kg) and low (1 mg/kg) doses
  addictive potential effects: absent
[2]; Microplate Spectrophotometer, Day 1, read-out: pKa, interday repeatability
  pKa: 8.18
[2]; Microplate Spectrophotometer, Day 2, read-out: pKa, interday repeatability
  pKa: 8.1
[2]; Microplate Spectrophotometer, Day 3, read-out: pKa, interday repeatability
  pKa: 8.12
[2]; pH 7.55, target pH 7.6, actual pH 7.55, 5 µg/mL, 248 nm, read-out: pKa
  pKa: 8.09
[2]; pH 7.6, microplate method, mean over pH 7.6-9.0, read-out: pKa (Mean ± SD)
  pKa: 8.08 ± 0.04
[2]; pH 7.76, target pH 7.8, actual pH 7.76, 5 µg/mL, 248 nm, read-out: pKa
  pKa: 8.11
[2]; pH 7.94, target pH 8.0, actual pH 7.94, 5 µg/mL, 248 nm, read-out: pKa
  pKa: 8.03
[2]; pH 8.15, target pH 8.2, actual pH 8.15, 5 µg/mL, 248 nm, read-out: pKa
  pKa: 8.09
[2]; pH 8.32, target pH 8.4, actual pH 8.32, 5 µg/mL, 248 nm, read-out: pKa
  pKa: 8.1
[2]; pH 8.5, target pH 8.6, actual pH 8.50, 5 µg/mL, 248 nm, read-out: pKa
  pKa: 8.03
[2]; pH 8.66, target pH 8.8, actual pH 8.66, 5 µg/mL, 248 nm, read-out: pKa
  pKa: 8.15
[2]; pH 8.8, target pH 9.0, actual pH 8.80, 5 µg/mL, 248 nm, read-out: pKa
  pKa: 8.06
[3]; oral dose 20–50 mg/kg
  Cmax: 400 to 2300 ng/mL
  half-life: 3.8 to 9.4 h
[3]
  absolute oral bioavailability: ≈ 3%
[4]; aqueous buffer, thermodynamic from solid, buffer pH 4, 37 °C
  solubility at 48 h: 3500 ± 10 µg/mL (≈ 8780 µM)
[4]; aqueous buffer, thermodynamic from solid, buffer pH 7, 37 °C
  solubility at 48 h: 88.9 ± 1.6 µg/mL (≈ 223 µM)
[4]; aqueous buffer, thermodynamic from solid, buffer pH 9, 37 °C
  solubility at 48 h: 18.7 ± 0.4 µg/mL (≈ 46.9 µM)
[4]; distilled water, thermodynamic from solid, water, 37 °C
  solubility at 48 h: 64.6 ± 1.2 µg/mL (≈ 162 µM)
[4]; distilled water, water, 37 °C
  solubility at 48 h: < 100 µg/mL
[5]; SGF pH 1.2 without enzymes
  drug released (dissolution): 80%
[5]; SIF pH 6.8 without enzymes
  drug released (dissolution): 22%
[6]; n-octanol/buffer pH 4, pH 4
  logD: 0.78
[6]; n-octanol/buffer pH 7, pH 7
  logD: 1.73
[6]; n-octanol/buffer pH 9, pH 9
  logD: 1.56
[6]; n-octanol/water, read-out: Calculated n-octanol/water partition coefficient (logP)
  logP: 1.7
[6]; octanol / buffer pH 4
  Mitragynine Content in buffer layer: 2.98 µg/mL
  Mitragynine Content in octanol layer: 17.97 µg/mL
[6]; octanol / buffer pH 7
  Mitragynine Content in buffer layer: 0.38 µg/mL
  Mitragynine Content in octanol layer: 20.54 µg/mL
[6]; octanol / buffer pH 9
  Mitragynine Content in buffer layer: 0.51 µg/mL
  Mitragynine Content in octanol layer: 18.45 µg/mL
[6]; octanol / water
  Mitragynine Content in aqueous layer: 0.42 µg/mL
  Mitragynine Content in octanol layer: 20.74 µg/mL
